In patent publication US20200046763A1, “APPLICATION OF GSK3 INHIBITOR IN PREPARING A DRUG TO TREAT NIEMANN-PICK DISEASE TYPE C” (WUXI HANQIANG PHARMACEUTICAL TECHNOLOGY CO., LTD., priority 2016, published 2020):

How the values were obtained:
[1] = system: NPC1 KD or NPC1 KO hematopoietic and neural stem cells; experiment: Effect of GSK3 inhibitor on NP-C cell model (proliferation, stem cell self-renewal and differentiation); assay type: cell-based, mouse; conditions: for self-renewal and differentiation capacities of hematopoietic and neural stem cells: NPC1 KD or NPC1 KO cells, LiCl 10 MM, CHIR99021 3 uM
Method: 2) NPC1 gene expression knock-down (KD) human and mouse cells: lentivirus expressing human and mouse NPC1 shRNA is prepared, lentivirus infects human embryonic kidney 293T and Mouse Embryonic Fibroblast (MEF), positive infected cells are screened by puromycin, and qPCR and western blotting validate the effect of NPC1 gene expression knock-down, to obtain the NPC1 KD cell model.
According to the method of Embodiment I, NPC model cells are prepared, and hematopoietic stem cells and neural stem cells of the NPC1 KO mice are isolated.
Experimental procedures and measurement indexes are: treatment of NPC1 KD and NPC1 KO cells with GSK3 specific inhibitors, i.e., LiCl and CHIR99021, and observation of changes in cell proliferation and stern cell self-renewal and differentiation.

NPC1 KO mice = experiment: Effect of GSK3 inhibitor on NPC1 KO mouse model; assay type: in vivo; conditions: LiCl 85 mg/kg or CHIR99021 20 mg/kg intraperitoneally daily from first week (b9: or same dose intragastrically)
Method: NPC1 KO mice are divided into three groups (a control group, a LiCl treatment group and a CHIR99021 treatment group), with five mice in each group. From the first week after birth, the mice in the LiCl treatment group and the CHIR99021 treatment group are intraperitoneally injected with LiCl (85 mg/kg) and CHIR99021 (20 mg/kg) per day respectively, the mice in the control group are intraperitoneally injected with normal saline, and the survival rate of the mice is continuously observed.
An NPC1 gene knock-out (KO) mouse preparation method: the NPC1 genes are knocked out by CRISPY_Cas9 to obtain NPC1−/−mice.
The NPC mouse model is prepared according to the method of Embodiment II, and LiCl (the dose of 85 mg/kg) or CRIR99021 (the dose of 20 mg/kg) is intraperitoneally injected every day from the first week.
The testing indexes are phenotypes of hematological and neurological systems, as well as symptoms and signs.

[2] = NPC1 KD hematopoietic stem cells, 10 mM LiCl

Row | Structure (SMILES) | self-renewal and differentiation capacities of hematopoietic and neural stem cells [1] | hematopoietic function of the mice (NPC1 KO mice) | neurodegenerative change symptoms (NPC1 KO mice) | increase of colony formation capacity [1, 2] | increase of proliferation capacity of hematopoietic stem cells [1, 2]
1 | Cc1c[nH]c(-c2cnc(NCCNc3ccc(C#N)cn3)nc2-c2ccc(Cl)cc2Cl)n1 [CHIR99021] | significantly improve | significantly improved | significantly improved | – | –
2 | [Cl-].[Li+] [LiCl] | significantly improve | significantly improved | significantly improved | ≥ 30% | ≥ 50%
